Measured values reported in PMC10914731, “Homo-BacPROTAC-induced degradation of ClpC1 as a strategy against drug-resistant mycobacteria” (Nature Communications, 2024).
≈ marks a conversion by molar mass, not a printed value. Where “and” joins values, the source holds several entries; their conditions need not be identical. Equal entries are not always repeated. Where two headings read alike, the source gives them in different places. Where a SMILES comes first, the peptide text is derived from it. [ ]: non-standard residue; d: D form. Trp(1-(1,1-Me2-allyl)) = C=CC(C)(C)n1cc(C[C@H](N)C(=O)O)c2ccccc21; Ala(3R-Me,3-isobutenyl) = CC(C)=C[C@@H](C)[C@H](N)C(=O)O; NMeLeu(5-OH,4R) = CN[C@@H](C[C@@H](C)CO)C(=O)O; Phe(βR-OMe) = CO[C@H](c1ccccc1)[C@H](N)C(=O)O; NMeL = CN[C@@H](CC(C)C)C(=O)O

Experiments:
[1] = target: ClpC1 NTD protein (M. tuberculosis) (Mycobacterium tuberculosis, UniProt P9WPC9); assay: biochemical; type: binding
[2] = in vitro; details: human
How it was run: (§1)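 Values are bidirectional Caco-2 apparent permeabilities, P(A−B) and P(B−A), given in 10^-6 cm s-1. The efflux ratio divides P(B−A) by P(A−B), and intrinsic permeability averages the two directions.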

[3] = system: Caco-2 monolayers; assay: in vitro; details: human, Caco-2
How it was run: as §1

[4] = type: in vitro ADME, Mice; details: for Microsomal Stability Mice: clearance in microsomes
How it was run: (§2)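 Clearance, expressed as % liver blood flow (%Qh), derived by the well-stirred model from first-order half-lives. Depletion monitored by HPLC-MS/MS in acetonitrile-stopped samples over time; 37 °C, NADPH 1 mM, microsomes 0.5 mg/ml, compound 1 µmol/l, Tris-HCl pH 7.5 with MgCl2.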

[5] = type: in vitro ADME, Rat; details: for Microsomal Stability Rat: clearance in microsomes
How it was run: as §2

[6] = Microsomal stability, human; type: in vitro ADME; details: for Microsomal Stability Human: clearance in microsomes
How it was run: as §2

[7] = Hepatocyte stability, mice; type: in vitro ADME; details: mouse, pH 7.4
How it was run: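 Clearance expressed as % of liver blood flow (% Qh), derived from half-life via the well-stirred liver model. Compound at 1 µM final was incubated up to 6 h with ~1 million cells/mL hepatocytes in 50% serum buffer, 37 °C, pH 7.4.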

[8] = type: in vitro ADME, Rat; details: rat, pH 7.4
[9] = type: in vitro ADME, Human; details: human, pH 7.4
[10] = system: M. tuberculosis H37Rv (ATCC 27294); assay: microbe, parasite or virus in culture; type: cell-based
[11] = system: Msm 607; assay: microbe, parasite or virus in culture; type: cell-based; details: for Msm 607 MIC: single determinations
[12] = target: His6-tagged ClpC1-NTD substrate, M. smegmatis ClpC1P1P2 (UniProt A0R574+P9WPC9); assay: biochemical; type: biochemical; details: for DC50: Msm; for % Response / ClpC1-NTD peak area: Figure 4a source data, well replicates
[13] = target: ClpC1-NTD substrate, M. tuberculosis ClpC1P1P2 (Mycobacterium tuberculosis, UniProt P9WPC9); assay: biochemical; type: biochemical; details: Mtb
[14] = target: endogenous ClpC1 in Msm #607 cells (Mycolicibacterium smegmatis, UniProt A0R574); type: cell-based, M. smegmatis
[15] = system: Mtb H37Rv in THP-1 macrophages; assay: Intracellular MIC assay in THP-1 macrophages; type: cell-based, Mycobacterium tuberculosis; parameters: Emax: unit not given here
[16] = SPR (Supplementary Table 1), read-out: KD ClpC1-NTD Mean ± SD
[17] = SPR, single independent measurements, read-out: KD ClpC1-NTD
[18] = Mycobacterium tuberculosis, Mtb H37Rv (Supplementary Table 2), read-out: MIC Mtb
[19] = Mycobacterium tuberculosis, single determinations, read-out: Mtb MIC
[20] = single determinations, read-out: Mtb MIC
[21] = Mycolicibacterium smegmatis, 607, read-out: MIC Msm 607
[22] = Mycolicibacterium smegmatis, 607, read-out: Msm 607 MIC, single determinations
[23] = mean of the measurements, read-out: DC50, Mean

Chain of His6-tagged ClpC1-NTD substrate, M. smegmatis ClpC1P1P2 (P9WPC9 1-156, looked up, natural form): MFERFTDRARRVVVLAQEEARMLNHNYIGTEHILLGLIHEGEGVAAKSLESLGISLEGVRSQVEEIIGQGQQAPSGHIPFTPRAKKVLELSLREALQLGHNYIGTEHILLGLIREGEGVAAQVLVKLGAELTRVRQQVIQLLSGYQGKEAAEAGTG
Chain of His6-tagged ClpC1-NTD substrate, M. smegmatis ClpC1P1P2 (A0R574 whole entry): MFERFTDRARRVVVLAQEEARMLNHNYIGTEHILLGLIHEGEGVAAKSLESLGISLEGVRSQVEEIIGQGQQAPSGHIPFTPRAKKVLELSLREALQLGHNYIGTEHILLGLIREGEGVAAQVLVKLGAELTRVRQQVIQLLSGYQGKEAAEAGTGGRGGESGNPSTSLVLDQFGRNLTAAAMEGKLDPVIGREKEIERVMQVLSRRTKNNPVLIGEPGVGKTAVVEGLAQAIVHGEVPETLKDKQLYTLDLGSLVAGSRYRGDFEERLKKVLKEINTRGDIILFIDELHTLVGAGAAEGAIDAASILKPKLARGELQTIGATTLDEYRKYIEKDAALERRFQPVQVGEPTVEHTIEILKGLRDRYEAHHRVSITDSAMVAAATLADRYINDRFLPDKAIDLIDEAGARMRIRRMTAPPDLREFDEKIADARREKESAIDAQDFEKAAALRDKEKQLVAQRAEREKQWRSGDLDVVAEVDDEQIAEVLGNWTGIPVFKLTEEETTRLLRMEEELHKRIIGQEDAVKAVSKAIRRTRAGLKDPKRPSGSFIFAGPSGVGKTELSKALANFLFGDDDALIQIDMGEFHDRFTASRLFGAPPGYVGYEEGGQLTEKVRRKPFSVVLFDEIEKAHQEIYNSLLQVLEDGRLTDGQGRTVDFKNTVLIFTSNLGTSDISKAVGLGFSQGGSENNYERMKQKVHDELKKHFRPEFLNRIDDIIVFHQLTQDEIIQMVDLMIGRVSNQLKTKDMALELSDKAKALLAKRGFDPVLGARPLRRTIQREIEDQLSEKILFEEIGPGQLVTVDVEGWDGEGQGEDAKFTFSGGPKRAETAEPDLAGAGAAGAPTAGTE
Chain of ClpC1 NTD protein (M. tuberculosis) (P9WPC9 1-156, looked up, natural form): as the sequence (P9WPC9 1-156, looked up, natural form) above
Chain of endogenous ClpC1 in Msm #607 cells (A0R574 whole entry): as the sequence (A0R574 whole entry) above
Chain of ClpC1-NTD substrate, M. tuberculosis ClpC1P1P2 (P9WPC5 whole entry): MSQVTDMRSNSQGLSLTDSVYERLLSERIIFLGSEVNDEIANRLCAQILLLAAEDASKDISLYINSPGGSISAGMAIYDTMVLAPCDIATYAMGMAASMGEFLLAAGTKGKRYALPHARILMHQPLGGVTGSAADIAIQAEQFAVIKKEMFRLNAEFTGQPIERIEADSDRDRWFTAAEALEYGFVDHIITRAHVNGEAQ
Chain of ClpC1-NTD substrate, M. tuberculosis ClpC1P1P2 (P9WPC9 whole entry): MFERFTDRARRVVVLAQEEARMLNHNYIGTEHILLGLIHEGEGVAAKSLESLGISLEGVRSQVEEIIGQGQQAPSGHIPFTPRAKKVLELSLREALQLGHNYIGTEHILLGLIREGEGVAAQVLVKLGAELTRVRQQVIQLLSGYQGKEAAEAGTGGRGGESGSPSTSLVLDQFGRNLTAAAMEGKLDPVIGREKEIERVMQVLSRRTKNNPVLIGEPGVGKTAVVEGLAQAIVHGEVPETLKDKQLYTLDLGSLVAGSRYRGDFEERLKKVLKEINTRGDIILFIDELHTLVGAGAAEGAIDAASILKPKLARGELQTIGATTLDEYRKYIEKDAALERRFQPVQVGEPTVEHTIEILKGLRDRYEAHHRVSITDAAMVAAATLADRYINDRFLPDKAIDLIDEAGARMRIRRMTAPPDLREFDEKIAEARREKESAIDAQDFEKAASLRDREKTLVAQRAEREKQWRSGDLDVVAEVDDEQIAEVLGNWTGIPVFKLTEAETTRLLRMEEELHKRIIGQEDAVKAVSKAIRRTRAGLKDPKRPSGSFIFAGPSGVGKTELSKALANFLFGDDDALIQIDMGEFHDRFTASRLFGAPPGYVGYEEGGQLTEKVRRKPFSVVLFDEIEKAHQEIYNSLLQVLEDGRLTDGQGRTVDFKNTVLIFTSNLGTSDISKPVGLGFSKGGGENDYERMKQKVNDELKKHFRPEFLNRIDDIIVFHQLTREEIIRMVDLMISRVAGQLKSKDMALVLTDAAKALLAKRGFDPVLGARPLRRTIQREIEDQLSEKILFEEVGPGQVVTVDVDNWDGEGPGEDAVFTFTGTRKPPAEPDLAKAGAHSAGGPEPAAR
Chain of ClpC1-NTD substrate, M. tuberculosis ClpC1P1P2 (P9WPC3 whole entry, further chain): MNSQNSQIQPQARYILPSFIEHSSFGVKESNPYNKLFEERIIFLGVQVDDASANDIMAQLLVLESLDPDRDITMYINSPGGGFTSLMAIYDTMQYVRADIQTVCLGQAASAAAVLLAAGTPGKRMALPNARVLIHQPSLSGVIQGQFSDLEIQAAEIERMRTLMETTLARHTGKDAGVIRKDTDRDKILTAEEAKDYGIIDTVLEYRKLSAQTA

## C=CC(C)(C)n1cc(C[C@@H]2NC(=O)[C@H]([C@H](C)C=C(C)C)NC(=O)[C@H](CC(C)C)N(C)C(=O)[C@H](C(C)C)NC(=O)[C@H]([C@H](OC)c3ccccc3)NC(=O)[C@H](C)NC(=O)[C@H](C[C@@H](C)CO)N(C)C2=O)c2ccccc21 [dCymC] (cyclo([Trp(1-(1,1-Me2-allyl))][NMeLeu(5-OH,4R)]A[Phe(βR-OMe)]V[NMeL][Ala(3R-Me,3-isobutenyl)]))
[1]; [16]
  Kd: 1.1 ± 0.4 nM
[1]; SPR, individual measurements (source data), read-out: KD ClpC1-NTD
  Kd: 2.02 nM and 1.58 nM and 1.15 nM (5×) and 0.995 nM and 1.06 nM (3×) and 1.21 nM (2×) and 1.23 nM (3×) and 0.859 nM and 1.01 nM (4×) and 1.13 nM (2×) and 1.16 nM (5×) and 0.401 nM and 0.981 nM and 0.95 nM and 1.03 nM and 0.866 nM and 1.14 nM (2×) and 1.54 nM and 0.99 nM and 1.26 nM and 1.53 nM (2×) and 1.07 nM (3×) and 1.05 nM (3×) and 1.09 nM (4×) and 1.84 nM and 1.39 nM (2×) and 1.44 nM and 1.47 nM (2×) and 0.934 nM and 1.1 nM (3×) and 0.723 nM and 2.22 nM and 0.892 nM and 0.91 nM and 1.75 nM (3×) and 0.741 nM and 0.702 nM and 1.25 nM (2×) and 0.729 nM and 0.721 nM and 1.67 nM and 1.63 nM and 1.37 nM and 1.92 nM and 1.99 nM and 1.17 nM and 1.08 nM (3×) and 0.583 nM and 1.11 nM (4×) and 0.666 nM and 0.718 nM and 0.833 nM and 0.74 nM and 0.783 nM and 0.822 nM and 0.734 nM and 0.671 nM and 1.6 nM and 1.52 nM (2×) and 1.45 nM (3×) and 1.33 nM (3×) and 1.28 nM (2×) and 1.31 nM and 0.952 nM (2×) and 0.854 nM and 1.2 nM (3×) and 0.728 nM and 0.717 nM and 1.59 nM and 1.51 nM and 0.903 nM and 0.9 nM (2×) and 0.985 nM and 1.18 nM and 0.911 nM and 0.904 nM and 1.12 nM and 0.85 nM and 0.908 nM and 1.02 nM and 3.37 nM and 0.912 nM and 0.781 nM and 0.973 nM and 0.999 nM and 0.958 nM and 0.76 nM and 0.886 nM and 0.843 nM and 1.04 nM (4×) and 1.24 nM and 0.917 nM and 0.907 nM and 0.838 nM
[1]; [17]
  Kd: 1.15 nM (5×) and 1.06 nM (3×) and 1.21 nM (2×) and 1.23 nM (3×) and 1.01 nM (4×) and 1.13 nM (2×) and 1.16 nM (5×) and 1.14 nM (2×) and 1.53 nM (2×) and 1.07 nM (3×) and 1.05 nM (3×) and 1.09 nM (4×) and 1.39 nM (2×) and 1.47 nM (2×) and 1.1 nM (3×) and 1.75 nM (3×) and 1.25 nM (2×) and 1.08 nM (3×) and 1.11 nM (4×) and 1.52 nM (2×) and 1.45 nM (3×) and 1.33 nM (3×) and 1.28 nM (2×) and 0.952 nM (2×) and 1.2 nM (3×) and 0.9 nM (2×) and 1.04 nM (4×)
[1]; SPR, read-out: ClpC1-NTD KD Mean ± SD
  Kd: 1.1 ± 0.4 nM
[2]; Caco-2
  efflux ratio: 3
[2]; Caco-2, CACO permeability PEBA
  Papp B→A: 2.6 ×10⁻⁶ cm/s
[2]; Caco-2, Caco-2 permeability P (A-B)
  Papp A→B: 1.3 ×10⁻⁶ cm/s
[2]; Caco-2, Caco-2 permeability P (B-A)
  Papp B→A: 3.1 ×10⁻⁶ cm/s
[3]
  Caco-2 Int. Perm: 2.2
  Influence of N-methylation on permeability: 1.6
[4]
  Microsomal Stability Mouse QH: 56.100%
  Microsomal Stability Mice: 56 %Qh
[5]
  Microsomal Stability Rat QH: 38.300%
  Microsomal Stability Rat: 38 %Qh
[6]
  Microsomal Stability Human QH: 65.700%
  Microsomal Stability Human: 66 %Qh
[7]
  Hepatocyte Mice: 46 %Qh
[8]
  Hepatocyte Rat: 55 %Qh
  Hepatocyte Stability Rat QH: 55.000%
[9]
  Hepatocyte Human: 36 %Qh
  Hepatocyte Stability Human QH: 38.000%
[10]; Mycobacterium tuberculosis, M. tuberculosis H37Rv strain, read-out: MIC Mtb H37Rv Mean ± SD
  MIC: 0.4 ± 0.1 µM (≈ 0.405 µg/mL)
[10]; [18]
  MIC: 0.4 ± 0.1 µM (≈ 0.405 µg/mL)
[10]; Mycobacterium tuberculosis, individual measurements (source data), read-out: Mtb MIC
  MIC: 0.39 µM (≈ 0.394 µg/mL)
[10]; [19]
  MIC: 0.39 µM (≈ 0.394 µg/mL)
[10]; individual measurements (source data), read-out: Mtb MIC
  MIC: 0.390 µM and 0.600 µM and 0.300 µM
[10]; [20]
  MIC: 0.600 µM and 0.300 µM
[11]; [21]
  MIC: 2.8 ± 0.4 µM (≈ 2.83 µg/mL)
[11]; [22]
  MIC: 3.12 µM (≈ 3.16 µg/mL)
[11]
  Msm 607 MIC: 2.500 µM
[12]; Measurement 1-6, read-out: DC50, single measurements
  DC50: > 100000 nM
[12]; [23]
  DC50: > 100000 nM
[12]; cell-free, result in words
  degradation of the His6-tagged ClpC1-NTD substrate: did not cause any degradation
[12]; conc. 0.4 µM
  % Response: 106.994% and 100.864% and 100.549% and 126.212% and 118.079% and 125.703% and 101.139% and 105.018% and 104.304%
  ClpC1-NTD peak area: 974818 and 1343173 and 762481 and 700950 and 757234 and 818245 and 783567 and 770572 and 1135273
[12]; conc. 33.3 µM
  % Response: 107.525% and 103.829% and 103.089% and 121.205% and 120.164% and 127.4% and 120.436% and 100.085% and 97.8128%
  ClpC1-NTD peak area: 1099272 and 1301491 and 948418 and 890861 and 865884 and 830598 and 816002 and 754560 and 1171647
[12]; conc. 100.0 µM
  % Response: 99.5642% and 103.437% and 105.517% and 119.388% and 117.765% and 125.04% and 101.258% and 115.542% and 91.4636%
  ClpC1-NTD peak area: 1282982 and 1406378 and 1339163 and 984807 and 916165 and 1033433 and 896176 and 856679 and 1974349
[13]; Measurement 1-4, read-out: DC50, single measurements
  DC50: > 100000 nM
[13]; [23]
  DC50: > 100000 nM
[14]; 100 µM, Figure 5c, well replicates of 3 experiments
  ClpC1 peak area: 516046 and 317875 and 398263 and 302242 and 500156 and 40170.6 and 421518 and 401814 and 368135
[14]; Msm #607, 24 h, result in words
  intracellular degradation of ClpC1: did not induce degradation of ClpC1

## CO[C@H](c1ccccc1)[C@@H]1NC(=O)[C@H](C)NC(=O)[C@H](C[C@@H](C)CO)N(C)C(=O)[C@H](Cc2cn(Cc3cn(CCOCCOCCOCCn4cc(Cn5cc(C[C@@H]6NC(=O)[C@H](C(C)C)NC(=O)[C@H](CC(C)C)N(C)C(=O)[C@H](C(C)C)NC(=O)[C@H]([C@H](OC)c7ccccc7)NC(=O)[C@H](C)NC(=O)[C@H](C[C@@H](C)CO)N(C)C6=O)c6ccccc65)nn4)nn3)c3ccccc23)NC(=O)[C@H](C(C)C)NC(=O)[C@H](CC(C)C)N(C)C(=O)[C@H](C(C)C)NC1=O [Compound 7]
[1]; [16]
  Kd: 0.46 ± 0.05 nM
[1]; SPR dissociation rate constant, read-out: koff ClpC1-NTD Mean ± SD
  koff: 0.001 s⁻¹
[1]; SPR, single independent measurements
  koff ClpC1-NTD: 0.001 s⁻¹ and 0.0008 s⁻¹ and 0.0006 s⁻¹
[1]; [17]
  Kd: 0.473 nM and 0.459 nM and 0.508 nM and 0.398 nM
[1]; SPR, single independent measurements, read-out: koff ClpC1-NTD
  koff: 0.001 s⁻¹
[4]
  Microsomal Stability Mouse QH: 58.9% and 48.2%
  Microsomal Stability Mice: 53 %Qh
[5]
  Microsomal Stability Rat QH: 41.7% and 36.7%
  Microsomal Stability Rat: 40 %Qh
[6]
  Microsomal Stability Human QH: > 88.4% and 86.5%
  Microsomal Stability Human: 88 %Qh
[10]; [18]
  MIC: 0.1 µM (≈ 0.213 µg/mL)
[10]; [19]
  MIC: 0.098 µM (≈ 0.208 µg/mL)
[10]; [20]
  MIC: 0.156 µM (≈ 0.332 µg/mL)
[11]; [21]
  MIC: 1.4 ± 0.2 µM (≈ 2.98 µg/mL)
[11]; [22]
  MIC: 1.56 µM (≈ 3.32 µg/mL)
[11]
  Msm 607 MIC: 1.250 µM
[15]
  Emax: 1.22
[15]; 0.19µM, Day 4, well replicates
  intracellular viable mycobacteria: 5.34 log10 cfu/ml
[15]; 0.19µM, Day 7, well replicates
  intracellular viable mycobacteria: 5.68 log10 cfu/ml
[15]; 0.781µM, Day 4, well replicates
  intracellular viable mycobacteria: 4.98 log10 cfu/ml
[15]; 0.781µM, Day 7, well replicates
  intracellular viable mycobacteria: 4.98 log10 cfu/ml
[15]; 3.125µM, Day 4, well replicates
  intracellular viable mycobacteria: 4.75 log10 cfu/ml
[15]; 3.125µM, Day 7, well replicates
  intracellular viable mycobacteria: 4.56 log10 cfu/ml
[15]; 50µM, Day 4, well replicates
  intracellular viable mycobacteria: 4.39 log10 cfu/ml and 4.51 log10 cfu/ml
[15]; 50µM, Day 7, well replicates
  intracellular viable mycobacteria: 3.96 log10 cfu/ml
